From US10342796B2, “Acrylanilide derivative, preparation method, and applications thereof in pharmacy” (Ancureall Pharmaceutical (Shanghai) Co., Ltd., priority 2015, dated 2019)
Where two headings read alike, the source gives them in different places.

Key:
Assay in all cases: Growth inhibition GI50 in vitro (CCK8/MTT, 72 h)
[1] = tested on: NCI-H1781 (HER2 exon 20 G776VC mutation); assay type: cell-based; details: Homo sapiens
[2] = tested on: HCT116 (EGFR wt, Kras G13D); assay type: cell-based; details: Homo sapiens, HCT-116
Description: (§1) The suspension cells were collected by centrifugation. The supernatant was discard and the cell pellet was resuspended and counted. Different cell concentrations (5˜10×10^4 cells/mL) were prepared according to the growth cycle of each cell line and then seeded on a 96-well plate (Corning), 100 μL/well. The cells were incubated over night at 37° C., 5% CO2. The compounds were added to the cells on the second day with 2 wells in parallel. The final concentration of organic solvent shall not exceed 1%. The cells were continually incubated for 72 h, and then subjected to MTT assay.
(§2) The present compounds and the reference compounds were dissolved with DMSO (Sigma), respectively. […] The storage concentration of compounds was 10 mM and kept at −20° C. They were diluted by 2 times or 10 times with serial dilution before using.
(§3) Dojindo CCK8 reagent kit was used as MTT assay. […] FC meter was used as microplate reader.
(§4) Adherent cell culture medium was discard and immediately replaced with fresh prepared medium which contains 10% CCK8 reagent (100 μL/well). For the suspension cells, CCK8 was directly added to 10% of the final concentration. The cells were continually incubated for 1˜4 h. When the color of control wells turned to dark yellow, the absorption value was measured at OD450 nm. The cell growth rate was calculated according to the following formula: cell growth rate (%)=100*(T−T0)/(C−T0), T=optical density of drug treatment cell well—optical density of blank control well; T0=optical density of cell well before drug treatment—optical density of blank control well; C=optical density of cell well of solvent control group—optical density of blank control well. […] The experiment was independently repeated 1˜3 times, and subject to biological statistical analysis.
(§5) Growth inhibition assay was conducted in the cell lines shown Table 14 with the different oncogene mutations. Each compound started at 1000 nM as an initial concentration and was diluted by 2 times with serial dilution to 0.03 nM.

[3] = tested on: A375 (EGFR wt, BRAF V600E); assay type: cell-based; details: Homo sapiens, A-375
Description: EGFR wild type cell lines: human epidermal cancer cell line A431 (EGFR WT, amplification and high expression, from Shanghai Cell Bank of Chinese Academy of Sciences and ATCC), NSCLC cell lines NCI-H460 (EGFR WT, Kras G61H and PI3KCA E545K mutants, ATCC) and NCI-H1299 (EGFR WT, ATCC), melanoma cell line A375 (EGFR WT and BRAF V600E mutant, from Shanghai Cell Bank of Chinese Academy of Sciences, ATCC), human lung cancer cell line NCI-H292 (EGFR WT, from human lung mucoepidermoid carcinoma/lymphatic metastasis, purchased from Shanghai Cell Bank of Chinese Academy of Sciences) were cultured with 1×RPMI1640 complete medium which was supplement with 10% FBS. NSCLC cell line A549 (EGFR WT and Kras G12S mutant, from Shanghai Cell Bank of Chinese Academy of Sciences) was cultured with 1×Ham'S F12K complete medium which was supplement with 10% FBS, 1% double-antibiotics and 2 mM glutamine.
as §1, §2, §3, §4, §5

[4] = tested on: Ramos (BTK); assay type: cell-based, human; details: for GI50: Homo sapiens, Ramos, BTK; for inhibition effects: BTK+ Ramos cells
Description: RAMOS is human B lymphocytic leukemia cell line positively expressing BTK. It was cultured with 1×RPMI1640 complete medium (supplement with 10% FBS).
as §1, §2, §3, §4, §5

[5] = tested on: K562 (BCR-ABL); assay type: cell-based; details: Homo sapiens
Description: Human leukemia cell line K562 (expressing BCR-ABL fusion protein) (ATCC) was cultured with 1×RPMI1640 complete medium (supplement with 10% FBS).
as §1, §2, §3, §4, §5

[6] = tested on: HEL (Jak2 V167F); assay type: cell-based; details: Homo sapiens
Description: Jak2 is a kind of non-receptor PTK (Janus Kinase 2) with great significance in cell growth, differentiation and transformation. Jak2 gene mutation often leads to bone marrow hyperplasia and transformation. Especially Jak2 V167F mutation is common for clinical patients. Human erythroleukemia cell line HEL expressing Jak2 V167F was cultured with 1×RPMI1640 complete medium (supplement with 10% FBS).
as §1, §2, §3, §4, §5

[7] = NCI-H1781, Table 16, 1000 nM to 0.03 nM serial dilution, read-out: GI50 H1781 (HER2 G776VC)
[8] = HCT116, EGFR wt, Kras G13D, read-out: GI50
[9] = A375, EGFR wt, BRAF V600E, read-out: GI50
[10] = HEL, Jak2 V167F, read-out: GI50

Structure (SMILES) | GI50 [1, 7] | GI50 [2, 8] | GI50 [3, 9] | GI50 [4] | GI50 [5] | GI50 [6, 10] | inhibition effects [4] | GI50 ([1]; NCI-H1781, read-out: GI50 H1781 (HER2 G776VC)) | GI50 [2] | GI50 [3] | GI50 [6]
C=CC(=O)Nc1cc(Nc2nccc(-n3ccc4c(OC)cccc43)n2)c(OC)cc1N(C)CCN(C)C [Compound 99, N-(5-(4-(4-methoxyl-1H-indol-1-yl)-pyrimidin-2-ylamino)-2-(2-(dimethylamino-ethyl)-methyl-amino)-4-methoxyl-phenyl)-acrylamide] | 1.92 nM |  |  |  |  |  |  |  |  |  | 
C=CC(=O)Nc1cc(Nc2cc(Nc3ccc(OCC4CCOCC4)c(Cl)c3)ncn2)c(OC)cc1N(C)CCN(C)C [Compound 216, N-(5-(6-(3-chloro-4-(tetrahydropyran-4-yl-methoxyl)-phenylamino)-pyrimidin-4-ylamino)-2-((2-dimethylaminoethyl)-methyl-amino)-4-methoxyphenyl)-acrylamide] | 19.5 nM |  |  |  |  |  |  |  |  |  | 
C=CC(=O)Nc1cc(Nc2nccc(-n3ccc4c(OCCOC)cccc43)n2)c(OC)cc1N(C)CCN(C)C [Compound 205, N-(5-(4-(4-(2-methoxyl-ethoxyl)-1H-indol-1-yl)-pyrimidin-2-ylamino)-2-(2-(dimethylamino-ethyl)-methyl-amino)-4-methoxyl-phenyl)-acrylamide] | 1.52 nM |  |  |  |  |  |  |  |  |  | 
C=CC(=O)Nc1cc(Nc2nccc(Nc3cccc(Cl)c3)n2)c(OC)cc1N(C)CCN(C)C [Compound 2, N-(5-(4-(3-chloro-phenylamino)-pyrimidin-2-ylamino)-2-(2-(dimethylamino-ethyl)-methyl-amino)-4-methoxyl-phenyl)-acrylamide] |  | > 1000 nM | > 1000 nM | 234 nM | > 1000 nM | > 1000 nM |  |  |  |  | 
C=CC(=O)Nc1cc(Nc2ncnc(Nc3cccc(Br)c3)n2)c(OC)cc1N1CCC(N2CCCC2)CC1 [Compound 118] |  | > 1000 nM | 465 nM | 148 nM | > 1000 nM | > 1000 nM | moderate inhibition effects |  |  |  | 
C=CC(=O)Nc1cc(Nc2cc(Nc3cc(OC)c(Cl)cc3Cl)ncn2)c(OC)cc1N(C)CCN(C)C [Compound 136, N-(5-(6-(2,4-dichloro-5-methoxyl-phenylamino)-pyrimidin-4-ylamino)-2-((2-dimethylamino-ethyl)-methyl-amino)-4-methoxyl-phenyl)-acrylamide] | 7.32 nM |  |  |  |  |  |  |  |  |  | 
C=CC(=O)Nc1cc(Nc2nccc(-n3cnc4ccccc43)n2)c(OC)cc1N(C)CCN(C)C [Compound 106] |  | > 1000 nM | > 1000 nM | 234 nM | > 1000 nM | > 1000 nM |  |  |  |  | 
C=CC(=O)Nc1cc(Nc2cc(-c3cn(C(C)C)c4ccccc34)ncn2)c(OC)cc1N(C)CCN(C)C [Compound 183] |  | > 1000 nM | > 1000 nM | 78.1 nM | > 1000 nM | > 1000 nM | moderate inhibition effects |  |  |  | 
C=CC(=O)Nc1cc(Nc2ncc(Cl)c(Nc3ccc(OCc4ccccn4)c(Cl)c3)n2)c(OC)cc1N(C)CCN(C)C [Compound 19, N-(5-(5-chloro-4-(3-chloro-4-(pyridin-2-methoxyl)phenylamino)-pyrimidin-2-ylamino)-2-((2-(dimethylamino)ethyl)(methyl)amino)-4-methoxyl-phenyl)-acrylamide] |  | > 1000 nM | > 1000 nM |  | > 1000 nM | > 1000 nM |  |  |  |  | 
C=CC(=O)Nc1cc(Nc2cc(Nc3ccc(F)c(Cl)c3)ncn2)c(OC)cc1N(C)CCN(C)C [Compound 140, N-(5-(6-(3-chloro-4-fluoro-phenylamino)-pyrimidin-4-ylamino)-2-((2-dimethylamino-ethyl)-methyl-amino)-4-methoxyl-phenyl)-acrylamide] |  | > 1000 nM | > 1000 nM | 58.6 nM | > 1000 nM | > 1000 nM | moderate inhibition effects |  |  |  | 
C=CC(=O)Nc1cc(Nc2nccc(-c3cn(C)c4ccccc34)n2)c(OC)cc1N(C)CCN(C)C [AZD9291, reference compound] |  |  |  | 937 nM | > 1000 nM |  |  | 195 nM | > 1000 nM | > 1000 nM | > 1000 nM
C=CC(=O)Nc1cc(Nc2nccc(Nc3ccc(OCc4ccccn4)c(Cl)c3)n2)c(OC)cc1N(C)CCN(C)C [Compound 18, N-(5-(4-(3-chloro-4-(pyridin-2-methoxyl)phenylamino)pyrimidin-2-ylamino)-2-((2-(dimethylamino)ethyl)(methyl)amino)-4-methoxyl-phenyl)-acrylamide] |  | > 1000 nM | > 1000 nM | 937 nM | > 1000 nM | > 1000 nM |  |  |  |  | 
C=CC(=O)Nc1cc(Nc2ncnc(Nc3cccc(F)c3)n2)c(OC)cc1N(C)CCN(C)C [Compound 114, N-(5-(4-(3-fluoro-phenylamino)-[1,3,5]triazin-2-ylamino)-2-((2-dimethylamino-ethyl)-methyl-amino)-4-methoxyl-phenyl)-acrylamide] |  | > 1000 nM | 465 nM | 96.6 nM | > 1000 nM | > 1000 nM | moderate inhibition effects |  |  |  | 
C=CC(=O)Nc1cc(Nc2cc(Nc3ccc(F)c(Cl)c3)ncn2)c(OC)cc1N1CCN(C2CCN(C)CC2)CC1 [Compound 147, N-(5-(6-(3-chloro-4-fluoro-phenylamino)-pyrimidin-4-ylamino)-4-methoxyl-2-(4-(1-methylpiperidin-4-yl)-piperazin-1-yl)-phenyl)-acrylamide] |  | > 1000 nM | > 1000 nM | 46.8 nM | > 1000 nM | > 1000 nM |  |  |  |  | 
C=CC(=O)Nc1cc(Nc2cc(Nc3cc(F)c(OC)c(Cl)c3)ncn2)c(OC)cc1N(C)CCN(C)C [Compound 236, N-(5-(6-(3-chloro-5-fluoro-4-methoxyphenylamino)-pyrimidin-4-yl-amino)-2-((2-dimethylamino-ethyl)-methyl-amino)-4-methoxyl-phenyl)-acrylamide] | 0.96 nM |  |  |  |  |  |  |  |  |  | 
